Experimental data as given in patent US20080045494A1, “Pyridine Analogues VI” (ASTRAZENECA AB, priority 2006, published 2008).
pIC50: −log10 of the molar value.

Molecular target: T1, P2Y12 receptor (Homo sapiens, UniProt Q9H244)
T1 construct: expressed in transfected cells; host or cells: CHO cells (membranes)
Assay: Functional inhibition of 2-Me-S-ADP induced P2Y12 signalling (35S-GTPγS, membranes from P2Y12 transfected CHO-cells)
Assay type: biochemical
Settings: EC80 concentration of agonist 2-methyl-thio-adenosine diphosphate; 30° C., 45 min
Procedure: Functional inhibition of the P2Y12 receptor can be measured by in vitro assays using cell membranes from P2Y12 transfected CHO-cells, the methodology is indicated below.
Functional inhibition of 2-Me—S-ADP induced P2Y12 signalling: 5 μg of membranes were diluted in 200 μl of 200 mM NaCl, 1 mM MgCl2, 50 mM HEPES (pH 7.4), 0.01% BSA, 30 μg/ml saponin and 10 μM GDP. To this was added an EC80 concentration of agonist (2-methyl-thio-adenosine diphosphate), the required concentration of test compound and 0.1 μCi ^35S-GTPγS. The reaction was allowed to proceed at 30° C. for 45 min. Samples were then transferred on to GF/B filters using a cell harvester and washed with wash buffer (50 mM Tris (pH 7.4), 5 mM MgCl2, 50 mM NaCl). Filters were then covered with scintillant and counted for the amount of ^35S-GTPγS retained by the filter. Maximum activity was that determined in the presence of the agonist and minimum activity in the absence of the agonist following subtraction of the value determined for non-specific activity. The effect of compounds at various concentrations was plotted according to the equation: […]
y=A+((B−A)/(1+((C/x)̂D)))
A is the bottom plateau of the curve i.e. the final minimum y value
B is the top of the plateau of the curve i.e. the final maximum y value
C is the x value at the middle of the curve. This represents the log EC50 value when A+B=100 […]

T1 sequence (Q9H244 whole entry): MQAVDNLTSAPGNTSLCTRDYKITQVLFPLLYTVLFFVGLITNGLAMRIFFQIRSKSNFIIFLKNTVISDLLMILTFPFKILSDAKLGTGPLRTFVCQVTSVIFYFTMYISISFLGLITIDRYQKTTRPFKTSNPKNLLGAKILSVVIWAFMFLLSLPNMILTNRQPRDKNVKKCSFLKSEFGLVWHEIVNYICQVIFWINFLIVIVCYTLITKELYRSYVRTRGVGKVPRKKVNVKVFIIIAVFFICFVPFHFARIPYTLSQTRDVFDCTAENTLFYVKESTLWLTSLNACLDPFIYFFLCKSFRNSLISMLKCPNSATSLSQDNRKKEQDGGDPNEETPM

Row | pIC50 | Compound
1 | 6.62 | CCOC(=O)c1cc(C#N)c(NCC(=O)NS(=O)(=O)CCc2ccccc2)nc1C(F)(F)F [Example 6, Ethyl 5-cyano-6-[(2-oxo-2-{[(2-phenylethyl)sulfonyl]amino}ethyl)amino]-2-(trifluoromethyl)nicotinate]
2 | 6.09 | Ethyl 6-{[3-({[(5-chloro-2-thienyl)sulfonyl]amino}carbonyl)cyclopentyl]amino}-5-cyano-1-(trifluoromethyl)nicotinate [Example 3]
